One data set can be described thus: Chemical stability. The class given is physicochemical. The method, then: (§1) Several parameters have been evaluated to determine ADME-Tox profile of the compounds. Two specific toxicity assays have been performed to assess hepatoxicity and cardiotoxicity. Hepatotoxicity was evaluated in isolated hepatocytes from swiss mice and determined by the thiazolyl blue tetrazolium bromide colorimetric assay (sigma, St Louis, MO, USA). Cardiotoxicity was evaluated using the commercially available Predictor hERG fluorescence polarization kit (Thermo Fisher Scientific, Illinois, USA). Several absorption, distribution, metabolism, and excretion (ADME) assays have been carried out. The following experiments were undertaken: stability in human microsomes, binding to human plasma protein, and CYP3A4 inhibition assay (Vivid CYP3A4 assay, Thermo Fisher Scientific, Illinois, USA). Physico-chemical properties were also assessed such as aqueous solubility and chemical stability.

Another data set concerns human plasma protein. As to the kind of experiment: Binding to human plasma protein. Format: in vitro ADME. Here is the method:
as §1

Another data set has as its target T1, CYP3A4 (Homo sapiens, UniProt P08684).
T1 construct: purchased Thermo Fisher Scientific
As to the kind of experiment: CYP3A4 inhibition assay (Vivid CYP3A4 assay). Format: in vitro ADME. The method, then:
as §1

The next data set has as its target T2, hNGAL (Homo sapiens, UniProt P80188).
T2 construct: purchased R&D Systems
The data set is described as follows: hNGAL-induced IL6 and Col I secretion in human cardiac fibroblasts (ELISA). The arrangement: % inhibition versus hNGAL on IL-6 secretion: concentration or dose not given beside the values. Format: cell-based. Particulars: for IL-6 secretion: hNGAL-treated human cardiac fibroblasts, mean ± SEM. The method, then:
(§2) Primary human cardiac fibroblasts (HCF) were obtained from Promocell (Heidelberg, Germany) and maintained in Fibroblast Media 3 following manufacturer’s instructions (Promocell). Cells were used between passages 5 and 7. Cells were stimulated with recombinant hNGAL (500 ng/mL, R&D Systems) or with TGFβ (10 ng/mL, R&D Systems) for 24 h. To assess cell proliferation the MTT test was used following provider’s instructions (Roche). For protein analysis. Primary Mouse Kidney Fibroblasts (MKF) were isolated from Wild Type (WT) mice. Briefly, 8 weeks old mice were sacrificed by cervical dislocation and kidneys were cleaned and rinsed in cold DPBS (Dulbecco's Phosphate-Buffered Saline). The renal cortex was minced and incubated in Dulbecco’s modified eagle medium/Nutrient mixture F-12 (DMEM/F12, Sigma) containing 1 mg/mL collagenase A (Roche) during 25 min at 37 °C. The digestion was inactivated by adding culture medium (DMEM/F12 + 10% FBS) then the cell suspension was passed through a 100-μm cell strainer. After centrifugation, the pellet (containing MKF) was diluted with culture medium then plated in 75 cm^2 culture flask. After 24 h MKF were washed with DPBS before replacement of fresh culture medium. Thereafter, culture medium was changed every 48 h. Once 70–80% confluent, MKF were trypsinized and plated in 12 or 6-well plates. For experimental use, MKF were starved with culture medium containing only 3% FBS. MKF were treated with mNGAL (500 ng/mL, R&D Systems) or with TGFβ (10 ng/mL, R&D Systems) for 6 h for gene expression analysis.
(§3) IL6 and collagen type I concentrations were measured in cardiac tissue and cell supernatants by ELISA according to the manufacturer's instructions (R&D Systems).

In data set [1] the test system is isolated hepatocytes from swiss mice. As to the kind of experiment: Hepatotoxicity, thiazolyl blue tetrazolium bromide (MTT) colorimetric assay. The class given is cell-based, mouse. Here is the method:
as §1

The test system of data set [2] is TGFβ-treated mouse kidney fibroblasts. As to the kind of experiment: Specificity: gene expression in TGFβ-treated mouse kidney fibroblasts. The class given is cell-based. As to conditions: 10 µM, Fig. S6. Here is the method:
as §2, with “After centrifugation, the pellet (containing MKF) was diluted with culture medium then plated in 75 cm^2 culture flask. After 24 h MKF were washed with DPBS before replacement of fresh culture medium. Thereafter, culture medium was changed every 48 h. Once 70–80% confluent, MKF were trypsinized and plated in 12 or 6-well plates. For experimental use, MKF were starved with culture medium containing only 3% FBS. MKF were treated with mNGAL (500 ng/mL, R&D Systems) or with TGFβ (10 ng/mL, R&D Systems) for 6 h for gene expression analysis.” left out
Frozen tissues (kidneys, heart) were homogenized in TRIzol (Life Technologies, Illinois, USA) using FastPrep beads (MP-Bio, CA, USA). cDNAs were generated using the Superscript II reverse transcriptase kit (Invitrogen,NY, USA), and qPCR was performed as previously described. Briefly, transcript levels were analysed in a CFX396 apparatus (Biorad). […]

For data set [3], the system named is TGFβ-treated human cardiac fibroblasts. As to the kind of experiment: Specificity: IL6 and Col I secretion in TGFβ-treated human cardiac fibroblasts. As to conditions: 10 µM, Fig. S5. Format: cell-based. The method, then: as §2, with “Thereafter, culture medium was changed every 48 h. Once 70–80% confluent, MKF were trypsinized and plated in 12 or 6-well plates. For experimental use, MKF were starved with culture medium containing only 3% FBS. MKF were treated with mNGAL (500 ng/mL, R&D Systems) or with TGFβ (10 ng/mL, R&D Systems) for 6 h for gene expression analysis.” left out
as §3

[4] abbreviates: 10 µM, human cardiac fibroblasts, Fig. 1C.

SMILES strings stand for the structures. A value given as a limit tells only on which side of the number the result lay.

Consider one molecule from publication PMC7844219, “Antifibrotic effect of novel neutrophil gelatinase-associated lipocalin inhibitors in cardiac and renal disease models” (Scientific Reports, 2021).

T2 sequence (P80188 21-198): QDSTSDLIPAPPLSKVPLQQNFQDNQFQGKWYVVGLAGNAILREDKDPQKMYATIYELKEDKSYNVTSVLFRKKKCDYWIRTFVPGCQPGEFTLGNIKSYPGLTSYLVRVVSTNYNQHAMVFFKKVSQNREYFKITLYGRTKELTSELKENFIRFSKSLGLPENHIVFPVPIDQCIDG
T1 sequence (P08684 whole entry): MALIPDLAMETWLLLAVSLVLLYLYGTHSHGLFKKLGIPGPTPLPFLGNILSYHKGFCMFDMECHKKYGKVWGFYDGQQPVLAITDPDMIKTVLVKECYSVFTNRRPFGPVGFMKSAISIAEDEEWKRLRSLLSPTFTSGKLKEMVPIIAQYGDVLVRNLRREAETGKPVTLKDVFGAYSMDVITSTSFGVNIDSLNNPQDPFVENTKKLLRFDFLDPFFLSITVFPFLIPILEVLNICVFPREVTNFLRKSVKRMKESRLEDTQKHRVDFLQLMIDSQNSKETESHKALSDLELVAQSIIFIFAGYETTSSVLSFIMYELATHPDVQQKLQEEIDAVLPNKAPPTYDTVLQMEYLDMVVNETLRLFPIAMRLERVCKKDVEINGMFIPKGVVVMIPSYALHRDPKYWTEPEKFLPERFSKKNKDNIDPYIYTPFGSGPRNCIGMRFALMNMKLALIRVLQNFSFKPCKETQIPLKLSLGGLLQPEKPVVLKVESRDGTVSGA

As to `CC(=O)c1cccc(S(=O)(=O)NCc2ccccc2-n2cccn2)c1` [GPZ614741], in the data set “Chemical stability”, the “Stability to acidic pH, in words” value is “fully stable”. Further, the “Chemical Stability %” value in “Chemical stability” (Table S5) amounted to 103%. Also, in the data set with human plasma protein, the “Plasma protein binding (PPB), in words” value is listed as “low”. In the data set with human plasma protein (Table S5, human plasma protein binding), the hPPB% is given as 71.16%. On CYP3A4, the “Processing by CYP3A4, in words” value is reported as “partially processed by CYP3A4”. The “CyP 3A4 Inhibition % (100= no inhibition)” value on CYP3A4 (Table S5) is recorded as 72.21 ± 1.94%. Moreover, the “Increase in IL6 secretion induced by NGAL” value at hNGAL (1 µM, human cardiac fibroblasts, Fig. S3) is recorded as “did not prevent”. For the same molecule, the “NGAL-induced Col I secretion, in words” value at hNGAL (setting [4]) is listed as “fully inhibited”. At hNGAL (setting [4]), the “NGAL-induced IL6 secretion, in words” value is “fully inhibited”. The IL-6 secretion is recorded as 0.86 ± 0.2 at hNGAL (Table S1, first generation compounds, Control 1.0 ± 0.1, NGAL 2.21 ± 0.2); 0.59 ± 0.02 at hNGAL (Table S4, second generation compounds and parents, Control 1.00, NGAL 1.45). The “% inhibition versus hNGAL on IL-6 secretion” value on hNGAL (Table S1, first generation compounds, human cardiac fibroblasts) was found to be 61.1%; on hNGAL (Table S4, second generation compounds and parents, human cardiac fibroblasts), 59.5%. Moreover, the “Inhibitor effect on hNGAL-induced IL6 secretion, in words” value on hNGAL (human cardiac fibroblasts, text on Tables S1 and S4) is “important inhibitor effect”. Moreover, in data set [1], the “Hepatotoxicity (MTT)” value was greater than 0.1 mM. In data set [1] (Table S5, MTT), this molecule returned a Hepatotoxicity greater than 100 µM. Also, the “Effect on TGFβ-induced gene expression of Col I, Fibronectin and IL6” value in data set [2] is recorded as “no inhibitory effect”. Moreover, in data set [3], the “Effect on TGFβ-increased IL6 and Col I secretion” value was “no inhibitory effect”.
